From the supplement of paper PMC10307832

Assays:
Experiment in all cases: relative viability (nuclei count vs DMSO), 5 days (fraction); higher = more cells survive
[1] = compound: COc1cc(Nc2ncc(F)c(Nc3ccc4c(n3)NC(=O)C(C)(C)O4)n2)cc(OC)c1OC [R406] + COc1cccc2cc(-c3nc([C@H]4CC[C@H](C(=O)O)CC4)n4ncnc(N)c34)[nH]c12 [OSI-027] (partner 0.5 µM)
How it was run: (§1)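 After 5 days of treatment, lung cancer cells in 1536-well plates were fixed and stained in a single step (final 0.05% Triton X-100, 1% formaldehyde, 1 ug/ml Hoechst) and their nuclei counted on 4× images. Treatment had been applied by pin tool the day after seeding as one drug alone or as a fixed anchor-drug dose with five library-drug doses (not always all listed) in √10 steps. Relative viability is the nuclei count of treated wells divided by that of vehicle wells, and values are medians of duplicate plates.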

[2] = compound: COc1cc(Nc2ncc(F)c(Nc3ccc4c(n3)NC(=O)C(C)(C)O4)n2)cc(OC)c1OC [R406] + O=C(CCCCCCC(=O)Nc1ccccc1)NO [Vorinostat] (partner 1 µM)
How it was run: as §1

[3] = compound: O=C(/C=C/c1cccnc1)NCCCCC1CCN(C(=O)c2ccccc2)CC1 [Daporinad] + CC1(C)CCC(c2ccc(Cl)cc2)=C(CN2CCN(c3ccc(C(=O)NS(=O)(=O)c4ccc(N[C@H](CCN5CCOCC5)CSc5ccccc5)c(S(=O)(=O)C(F)(F)F)c4)cc3)CC2)C1 [Navitoclax] (partner 0.5 µM)
How it was run: as §1

[4] = compound: O=C(/C=C/c1cccnc1)NCCCCC1CCN(C(=O)c2ccccc2)CC1 [Daporinad] + C[C@]1(O)C[C@@H](c2nc(-c3ccc4ccc(-c5ccccc5)nc4c3)c3c(N)nccn32)C1 [Linsitinib] (partner 1 µM)
How it was run: as §1

| Cell Line | relative viability ([1]; first compound 0.08 µM) | relative viability ([1]; first compound 0.253 µM) | relative viability ([1]; first compound 0.8 µM) | relative viability ([1]; first compound 2.53 µM) | relative viability ([1]; first compound 8 µM) | relative viability ([2]; first compound 0.08 µM) | relative viability ([2]; first compound 0.253 µM) | relative viability ([2]; first compound 0.8 µM) | relative viability ([2]; first compound 2.53 µM) | relative viability ([2]; first compound 8 µM) | relative viability ([3]; first compound 0.0005 µM) | relative viability ([3]; first compound 0.001581 µM) | relative viability ([3]; first compound 0.005 µM) | relative viability ([3]; first compound 0.01581 µM) | relative viability ([4]; first compound 0.0005 µM) | relative viability ([4]; first compound 0.001581 µM) | relative viability ([4]; first compound 0.005 µM) | relative viability ([4]; first compound 0.01581 µM) |
| --- | --- | --- | --- | --- | --- | --- | --- | --- | --- | --- | --- | --- | --- | --- | --- | --- | --- | --- |
| NCI-H1793 | 0.251 | 0.273 | 0.303 | 0.116 | 0.158 | 0.632 | 0.967 | 0.928 | 0.128 | 0.182 | 0.453 | 0.499 | 0.38 | 0.569 | 0.697 | 0.853 | 1.14 | 0.926 |
| NCI-H1915 | 0.619 | 0.708 | 0.581 |  | 0.4 | 0.506 | 0.631 | 0.546 | 0.403 | 0.369 | 0.805 | 0.739 | 0.765 | 0.809 | 1.13 | 1.17 | 1.09 | 1.11 |
| NCI-H1944 | 0.398 | 0.41 | 0.419 | 0.304 | 0.242 | 0.504 | 0.585 | 0.566 | 0.466 | 0.45 | 1.08 | 1.05 | 0.981 | 1.09 | 1.17 | 1.26 | 1.34 | 1.25 |
| NCI-H1975 | 0.699 | 0.678 | 0.854 | 0.252 | 0.15 | 0.722 | 0.775 | 0.73 | 0.414 | 0.213 | 1.28 | 1.18 | 1.06 | 1.06 | 1.14 | 0.99 | 0.92 | 0.812 |
| NCI-H1993 | 0.546 | 0.521 | 0.55 | 0.515 | 0.552 | 0.892 | 1.03 | 0.963 | 0.433 | 0.447 | 0.877 | 0.753 | 0.982 | 1.16 | 0.703 | 0.715 | 0.782 | 0.77 |
| NCI-H2009 | 0.602 | 0.729 | 0.747 | 0.301 | 0.149 | 0.711 | 0.749 | 0.785 | 0.739 | 0.363 | 1.17 | 1.2 | 1.22 | 0.812 | 1.25 | 1.21 | 1.2 | 0.735 |
| NCI-H2023 | 0.413 | 0.464 | 0.488 | 0.134 | 0.0924 | 0.732 | 0.784 | 0.618 | 0.391 | 0.312 | 0.995 | 1.14 | 0.958 | 0.995 | 0.764 | 0.723 | 0.768 | 0.686 |
| NCI-H2085 | 0.863 | 0.968 | 0.861 | 0.259 | 0.345 | 0.749 | 0.8 | 0.847 | 0.691 | 0.561 | 1.17 | 1.25 | 1.23 | 1.03 | 0.907 | 0.959 | 0.915 | 0.918 |
| NCI-H2087 | 0.44 | 0.597 | 0.658 |  | 0.499 | 0.43 | 0.741 | 0.885 | 0.646 | 0.954 | 1.05 | 0.881 | 1.03 | 0.912 | 0.991 | 0.908 | 0.956 | 0.98 |
| NCI-H2126 | 0.624 | 0.78 | 0.661 | 0.606 | 0.641 | 0.833 | 0.797 | 0.819 | 0.581 | 0.707 | 0.914 | 0.751 | 0.845 | 0.874 | 0.686 | 0.75 | 0.719 | 0.683 |
| NCI-H2228 | 0.529 | 0.574 | 0.867 | 0.138 | 0.163 | 0.693 | 0.64 | 0.786 | 0.281 | 0.175 | 1.05 | 1.1 | 1.09 | 0.945 | 0.668 | 0.812 | 0.633 | 0.951 |
| NCI-H2347 | 0.381 | 0.436 | 0.479 | 0.278 | 0.253 | 0.586 | 0.651 | 0.767 | 0.383 | 0.397 | 0.926 | 0.887 | 0.885 | 0.779 | 1.1 | 1.03 | 1 | 0.981 |
| NCI-H2405 | 0.658 | 0.686 | 0.608 | 0.556 | 0.283 | 1 | 1.39 | 1.14 | 0.624 | 0.245 | 0.948 | 0.962 | 0.684 | 0.321 | 0.987 | 1.06 | 1.04 | 0.611 |
| NCI-H3122 | 0.956 | 1.06 | 1.01 | 0.319 | 0.78 | 0.884 | 1.1 | 1.03 | 0.923 | 0.928 | 1.01 | 1.02 | 1.02 | 0.987 | 1.01 | 1.01 | 1.02 | 1 |
| PC-3 [JPC-3] | 0.854 | 0.872 | 0.932 | 0.494 | 0.427 | 0.811 | 1.01 | 0.861 | 0.546 | 0.381 | 0.763 | 0.796 | 0.827 | 0.789 | 0.898 | 0.99 | 0.963 | 0.955 |
| PC-14 | 0.795 | 1.11 | 1.41 | 0.428 | 0.121 | 0.71 | 0.84 | 0.975 | 0.523 | 0.451 | 1.05 | 1 | 0.875 | 0.721 | 1.03 | 1.04 | 0.884 | 0.905 |
| RERF-LC-KJ | 0.609 | 0.588 | 0.623 | 0.432 | 0.392 | 0.669 | 0.811 | 0.732 | 0.583 | 0.552 | 1.04 | 0.984 | 1.01 | 1.18 | 0.883 | 0.893 | 1.01 | 0.949 |
| SK-LU-1 | 0.312 | 0.337 | 0.424 | 0.153 | 0.0841 | 0.84 | 0.822 | 0.764 | 0.555 | 0.155 | 0.901 | 0.646 | 0.672 | 1.1 | 1.26 | 1.13 | 1.05 | 1.09 |
